We go through 24 compounds from patent US6576662B2, “Compounds having anticancer activity : process for their preparation and pharmaceutical compositions containing them” (Dr. Reddy's Laboratories Limited, priority 2000, dated 2003).

One series deals with Human lymphocytes. The series is described as follows: Lymphocyte proliferation, tritiated thymidine incorporation. The class given is cell-based. To be noted: Concentration 1 μM; human lymphocytes with Phytohemagglutitin A. Here is the method:
Human lymphocytes were isolated from whole blood by using Ficoll Hypaque Plus (Amersham). On day one, 1 million lymphocytes were seeded into each well of 96 well plate in 100 μL volume of RPMI 1640 medium containing 10% FCS and Phytohemagglutitin A at 1 μg/well concentration. Plates were incubated at 37° C. in CO2 incubator for 24 h. Test compounds at various concentrations were added to test wells and only medium with vehicle was added to control wells. After 48 h of incubation […] of tritiated thymidine was added to each well. After 24 h of thymidine addition the cells were harvested and the incorporated radioactivity was determined. Stimulation Index (SI) was calculated using the formula, [formula]
A^T=Average CPM of treated wells,
A^C=Average CPM of control wells.
Background: Uptake of a labelled nucleoside into DNA is a usual measure of proliferation.

Another series deals with A498. The series is described as follows: in vitro anti-cancer screen, Sulforhodamine B method. The series is classed as cell-based, human. To be noted: RENAL: A498; 48 h incubation; read-out: GROWTH INHIBITION (GI 50). Here is the method: (§1) Each test compound was screened against a battery of cell lines representing eight different types of cancers. In a typical procedure, 1×10^4 cells were seeded into each well of 96 well plate in 100 μL volume of RPMI 1640 medium containing antibiotics and 10% FCS.
(§2) The plates were incubated at 37° C. in presence of CO2. After 24 h, test compounds were evaluated at five 10 fold dilutions ranging from 100 to 0.01 μM. To each test well 100 μL of test compound solution was added and medium with vehicle was added to control wells and the plates were further incubated. After 48 h of incubation, plates were terminated by Sulforhodamine B method.
(§3) The optical density which is proportional to protein mass, is then-read by automated spectrophotometric plate reader at a wavelength of 515 nm.
On the technique in general: In SRB staining, fixed cells bind dye roughly in proportion to their protein.

In a further series the test system is PA1. Described as above. The series is classed as cell-based, human. As to conditions: OVARIAN: PA1; 48 h incubation; read-out: GROWTH INHIBITION (GI 50). The protocol: as §1, §2, §3
The subject of the next series is H522. The description is as above. The class given is cell-based, human. As to conditions: LUNG: H522; 48 h incubation; read-out: GROWTH INHIBITION (GI 50). The protocol: as §1, §2, §3
Another series concerns HT29. Described as above. The series is classed as cell-based, human. As to conditions: COLON: HT29; 48 h incubation; read-out: GROWTH INHIBITION (GI 50). Here is the method:
as §1, §2, §3

Another series relates to U251. Described as above. The series is classed as cell-based, human. To be noted: CNS: U251; 48 h incubation; read-out: GROWTH INHIBITION (GI 50). The protocol: as §1, §2, §3
The test system of another series is SKOV-3. The description is as above. The series is classed as cell-based, human. As to conditions: OVARIAN: SKOV-3; 48 h incubation; read-out: GROWTH INHIBITION (GI 50). Here is the method:
as §1, §2, §3

The subject of a further series is SW-620. Described as above. As to conditions: COLON: SW-620; 48 h incubation; read-out: GROWTH INHIBITION (GI 50). The series is classed as cell-based, human. Here is the method: as §1, §2, §3
A further series relates to MCF-7/ADR. The description is as above. The class given is cell-based, human. As to conditions: BREAST: MCF-7/ADR; 48 h incubation; read-out: GROWTH INHIBITION (GI 50). Here is the method:
as §1, §2, §3

For another series, the system named is UACC62. The series is described as above. The series is classed as cell-based, human. As to conditions: MELANOMA: UACC62; 48 h incubation; read-out: GROWTH INHIBITION (GI 50). Here is the method:
as §1, §2, §3

The test system of the next series is MCF7. The description is as above. As to conditions: BREAST: MCF7; 48 h incubation; read-out: GROWTH INHIBITION (GI 50). The series is classed as cell-based, human. The protocol: as §1, §2, §3

As a reminder, the melting point is the temperature, or range, at which the solid turns liquid. In turn, `C=C1CCC2[C@](C)(CO)[C@H](O)CC[C@]2(C)[C@H]1CC(Nc1cc[nH]c(=O)n1)C1=CCOC1=O` (some centres unmarked) [Example 49, 14-Deoxy-12-[N-(1,2-dihydro-2-pyrimidinone)amino]andrographolide] yielded a melting point of 163 °C.
In turn, `C=C1CCC2[C@]3(C)COC(C)(C)OC3CC[C@]2(C)[C@H]1CC(Nc1cccc(C)c1C)C1=CCOC1=O` (some centres unmarked) [Example 38, 14-Deoxy-3,19-O-isopropylidene-12-(2,3-dimethylanilino)andrographolide] showed a melting point of 192.5 °C.
In the case of `C[C@]1(CO)C2CC[C@]3(CO3)[C@H](CC(Sc3ccccc3)C3=CCOC3=O)[C@@]2(C)CC[C@H]1O` (some centres unmarked) [Example 54, 14-Deoxy-8,17-epoxy-12-phenylthio andrographolide], the melting point was found to be 90 °C.
The same measure, in the same setting: then `C=C1CCC2[C@](C)(CO)C(O)CC[C@]2(C)[C@H]1CC(Nc1ccc(OC)c(OC)c1)C1=CCOC1=O` (some centres unmarked) [Example 37, 14-Deoxy-12-(3,4-dimethoxyanilino)andrographolide], with 225 to 230 °C.
On to `C=C1CCC2C(C)(COC(C)=O)C(OC(C)=O)CCC2(C)C1CC(NC(Cc1ccccc1)C(=O)OC)C1=CCOC1=O` (centres unmarked) [Example 6, 3,19-Diacetyl-14-deoxy-12-(O-methylphenylalano)andrographolide], for which the “Stimulation Index (SI)” value in the series on Human lymphocytes came out at 92.
For `C=C1CCC2[C@](C)(CO)[C@H](O)CC[C@]2(C)[C@H]1CC(SCC)C1=CCOC1=O` (some centres unmarked) [Example 64, 14-Deoxy-12-ethylthio andrographolide], the melting point came to 160 °C.
Regarding `C=C1CCC2[C@](C)(CO)[C@H](O)CC[C@]2(C)[C@H]1CC(Nc1cccc(C)c1C)C1=CCOC1=O` (some centres unmarked) [Example 28, 1-(2,3-Dimethylanilino)-14-deoxy andrographolide], in the series on Human lymphocytes, the “Stimulation Index (SI)” value came to 40.
Take `C=C1CCC2[C@](C)(COC(C)=O)C(OC(C)=O)CC[C@]2(C)[C@H]1CC(OC(C)=O)C1=CCOC1=O` (some centres unmarked) [Example 74, 12-Acetoxy-3,19-diacetyl-14-deoxy andrographolide]: the melting point was 152.7 °C.
In the case of `C=C1CCC2[C@](C)(CO)[C@H](O)CC[C@]2(C)[C@H]1CC(Sc1ccccc1)C1=CCOC1=O` (some centres unmarked) [Example 63, 14-Deoxy-12-phenylthio andrographolide], the melting point turned out to be 105 °C. Moreover, the “Stimulation Index (SI)” value in the series on Human lymphocytes was found to be 59.
`C=C1CCC2[C@](C)(CO)[C@H](O)CC[C@]2(C)[C@H]1CC(C1=CCOC1=O)n1ccc(=O)[nH]c1=O` (some centres unmarked) [Example 50, 14-Deoxy-12-(N^1-uracil)andrographolide] yielded a melting point of 164 °C.
The same measure, in the same setting: the result for `C=C1CCC2[C@](C)(CO)C(O)CC[C@]2(C)[C@H]1CC(NC(C(=O)OC)c1ccccc1)C1=CCOC1=O` (some centres unmarked) [Example 19, 14-Deoxy-12-(O-methylphenylglycino)andrographolide] reads 68 °C; that for `C=C1CCC2[C@]3(C)COC(c4ccccc4)OC3CC[C@]2(C)[C@H]1CC(Nc1cccc(C)c1C)C1=CCOC1=O` (some centres unmarked) [Example 40, 3,19-O-Benzylidene-14-deoxy-12-(2,3-dimethylanilino)andrographolide], 118 °C; that for `C=C1CCC2[C@]3(C)COC(c4ccccc4)OC3CC[C@]2(C)[C@H]1CC(NCc1ccccc1)C1=CCOC1=O` (some centres unmarked) [Example 24, 3,19-O-Benzylidene-12-(N-benzylamino)-14-deoxy andrographolide], 172 to 173 °C.
Compound `C=C1CCC2[C@](C)(CO)[C@H](O)CC[C@]2(C)[C@H]1CC(C1=CCOC1=O)n1cc(Br)c(=O)[nH]c1=O` (some centres unmarked) [Example 52, 14-Deoxy-12-[N^1-(5-bromouracil)]andrographolide] returned a melting point of 185 °C.
“3,19-Diacetyl-14-deoxy-12-[N^1-(5-iodouracil)]andrographolide [Example 48]”: the GI50 turned out to be 3000 nM with A498; 2000 nM with PA1; 4000 nM in the series on H522; 4000 nM with HT29; 2000 nM with U251; 3000 nM with SKOV-3. Also, the GI50 in the series on SW-620 was determined as 4000 nM; in the series on MCF-7/ADR, 2000 nM; in the series with UACC62, 3000 nM; in the series on MCF7 it was 2000 nM. Further, the “Stimulation Index (SI)” value in the series on Human lymphocytes is on record as 130.
The compound `CCC(=O)OC[C@@]1(C)C2CC[C@]3(CO3)[C@H](CC(OC(=O)CNC(=O)OC(C)(C)C)C3=CCOC3=O)[C@@]2(C)CC[C@H]1OC(=O)CC` (some centres unmarked) [Example 77, 12-(N-Bocglycinyloxy)-14-deoxy-8,17-epoxy-3,19-dipropionyl andrographolide] yielded a melting point of 80 °C.
The compound `C=C1CCC2[C@](C)(CO)[C@H](O)CC[C@]2(C)[C@H]1CC(C1=CCOC1=O)n1cc(I)c(=O)[nH]c1=O` (some centres unmarked) [Example 53, 14-Deoxy-12-[N^1-(5-iodouracil)]andrographolide] came in with a melting point of 187 to 188 °C.
Consider `C=C1CCC2C(C)(COC(C)=O)C(OC(C)=O)CCC2(C)C1CC(NC(CC[Se]C)C(=O)OC)C1=CCOC1=O` (centres unmarked) [Example 12, 3,19-Diacetyl-14-deoxy-12-(O-methylselenomethionino)andrographolide], for which the “Stimulation Index (SI)” value with Human lymphocytes is listed as 40.
Compound `C=C1CCC2[C@]3(C)COC(C)(c4ccccc4)OC3CC[C@]2(C)[C@H]1CC(NC(C(=O)OC)c1ccccc1)C1=CCOC1=O` (some centres unmarked) [Example 2, 14-Deoxy-12-(O-methylphenylglycino)-3,19-O-(1-phenylethylidene) androgrpaholide] showed a melting point of 91 °C.
Same read-out and setting: the result for `C=C1CCC2[C@](C)(CO)[C@H](O)CC[C@]2(C)[C@H]1CC([Se]c1ccccc1)C1=CCOC1=O` (some centres unmarked) reads 186 °C; that for `C=C1CCC2[C@]3(C)COC(C)(C)OC3CC[C@]2(C)[C@H]1CC(NC(Cc1ccccc1)C(=O)OC)C1=CCOC1=O` (some centres unmarked) [Example 20, 14-Deoxy-3,19-O-isopropylidene-12-(methylphenylalanino)andrographolide], 57 °C.
Still for that read-out and setting: then `C=C1CCC2[C@]3(C)COC(c4ccccc4)OC3CC[C@]2(C)[C@H]1CC(Sc1ccccc1)C1=CCOC1=O` (some centres unmarked) [Example 69, 3,19-O-Benzylidene-14-deoxy-12-phenylthio andrographolide], with 74 to 76 °C.
Turning to `C=C1CCC2[C@]3(C)COC(C)(c4ccccc4)OC3CC[C@]2(C)[C@H]1CC(Sc1ccccc1)C1=CCOC1=O` (some centres unmarked) [Example 67, 14-Deoxy-3,19-O-(1-phenylethylidene)-12-phenylthio andrographolide], the melting point came out at 154.1 °C.
Still for that read-out and setting: the result for `C=C1CCC2[C@]3(C)COC(C)(c4ccccc4)OC3CC[C@]2(C)[C@H]1CC(SCC)C1=CCOC1=O` (some centres unmarked) [Example 68, 14-Deoxy-3,19-O-(1-phenylethylidene)-12-ethylthio andrographolide] reads 122.5 to 125 °C.
